In US20250188040A1, “PHARMACEUTICAL COMPOSITIONS COMPRISING WRN HELICASE INHIBITORS” (Vividion Therapeutics, Inc., priority 2022, published 2025):
Where two headings read alike, the source gives them in different places.

Legend:
WRN C727 = target: T1, WRN C727 (Homo sapiens, UniProt Q14191); assay: Target engagement, in vitro (lysate), OCI-AML2; assay type: binding; settings: read-out: OCI-AML2 WRN C727 TE50 in vitro (lysate)
T1 construct: endogenous in cells; host or cells: OCI-AML2
In short: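 Percent engagement of WRN C727 is expressed against DMSO-treated samples, measured by PRM mass spectrometry of streptavidin-enriched, probe-tagged tryptic peptides. Compound dose responses preceded probe labelling of solvent-exposed cysteines, in either living OCI-AML2 cells or their lysates.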

SW480 cells = assay: Cell growth assay (CellTiter-Glo 2.0), SW480 MSS cell line; settings: Homo sapiens, SW480, 120 h, read-out: Cell Growth Inhibition GI50 SW480
HCT 116 cells = assay: Cell growth assay (CellTiter-Glo 2.0), HCT 116 MSI-H cell line; settings: Homo sapiens, HCT-116, 120 h, read-out: Cell Growth Inhibition GI50 HCT-116
[1] = target: hWRN(519-1227)_C-H3CV-GFP-10His (Homo sapiens, UniProt Q14191); assay: Helicase Assay for WRN Inhibition (ATP-dependent, fluorescence based)
[2] = WRN Helicase IC50, 30 min preincubation with ATP, 30 min reaction

T1 sequence (Q14191 whole entry): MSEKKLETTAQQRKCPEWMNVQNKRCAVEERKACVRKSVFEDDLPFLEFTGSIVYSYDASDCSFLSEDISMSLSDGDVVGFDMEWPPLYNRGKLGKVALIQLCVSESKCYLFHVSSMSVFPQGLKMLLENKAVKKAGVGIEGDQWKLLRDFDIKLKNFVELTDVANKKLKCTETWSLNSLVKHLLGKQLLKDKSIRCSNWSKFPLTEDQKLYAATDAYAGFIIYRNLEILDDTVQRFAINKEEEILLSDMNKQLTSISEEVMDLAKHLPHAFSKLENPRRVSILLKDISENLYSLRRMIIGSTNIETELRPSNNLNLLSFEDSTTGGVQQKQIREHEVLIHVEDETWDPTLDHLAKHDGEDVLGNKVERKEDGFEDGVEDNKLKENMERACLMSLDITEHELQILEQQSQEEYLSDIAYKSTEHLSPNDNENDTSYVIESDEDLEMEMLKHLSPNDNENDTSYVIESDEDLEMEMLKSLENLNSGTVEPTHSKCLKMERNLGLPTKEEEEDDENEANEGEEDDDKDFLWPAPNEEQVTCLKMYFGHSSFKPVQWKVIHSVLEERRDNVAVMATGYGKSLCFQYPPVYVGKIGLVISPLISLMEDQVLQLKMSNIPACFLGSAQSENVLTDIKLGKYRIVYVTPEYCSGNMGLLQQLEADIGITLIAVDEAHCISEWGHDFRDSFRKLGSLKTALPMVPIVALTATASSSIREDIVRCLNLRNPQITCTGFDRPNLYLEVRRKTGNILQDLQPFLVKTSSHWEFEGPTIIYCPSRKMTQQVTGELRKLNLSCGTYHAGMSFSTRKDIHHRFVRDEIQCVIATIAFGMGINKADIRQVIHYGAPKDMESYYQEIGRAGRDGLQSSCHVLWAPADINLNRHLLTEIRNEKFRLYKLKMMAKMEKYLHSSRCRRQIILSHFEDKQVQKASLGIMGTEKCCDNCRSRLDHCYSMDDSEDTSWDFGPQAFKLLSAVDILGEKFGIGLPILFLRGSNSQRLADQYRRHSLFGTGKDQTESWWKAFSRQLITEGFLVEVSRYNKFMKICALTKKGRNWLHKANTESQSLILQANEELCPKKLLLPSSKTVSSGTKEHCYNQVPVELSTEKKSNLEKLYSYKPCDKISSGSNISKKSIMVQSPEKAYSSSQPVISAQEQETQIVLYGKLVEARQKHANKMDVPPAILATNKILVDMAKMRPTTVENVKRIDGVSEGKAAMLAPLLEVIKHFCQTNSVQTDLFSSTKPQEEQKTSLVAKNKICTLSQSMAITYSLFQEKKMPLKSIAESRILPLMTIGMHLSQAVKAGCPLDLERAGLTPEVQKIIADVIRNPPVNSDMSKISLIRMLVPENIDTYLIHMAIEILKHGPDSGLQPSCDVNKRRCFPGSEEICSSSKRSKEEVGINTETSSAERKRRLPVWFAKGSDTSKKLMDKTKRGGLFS
Chain of hWRN(519-1227)_C-H3CV-GFP-10His (Q14191 519-1227): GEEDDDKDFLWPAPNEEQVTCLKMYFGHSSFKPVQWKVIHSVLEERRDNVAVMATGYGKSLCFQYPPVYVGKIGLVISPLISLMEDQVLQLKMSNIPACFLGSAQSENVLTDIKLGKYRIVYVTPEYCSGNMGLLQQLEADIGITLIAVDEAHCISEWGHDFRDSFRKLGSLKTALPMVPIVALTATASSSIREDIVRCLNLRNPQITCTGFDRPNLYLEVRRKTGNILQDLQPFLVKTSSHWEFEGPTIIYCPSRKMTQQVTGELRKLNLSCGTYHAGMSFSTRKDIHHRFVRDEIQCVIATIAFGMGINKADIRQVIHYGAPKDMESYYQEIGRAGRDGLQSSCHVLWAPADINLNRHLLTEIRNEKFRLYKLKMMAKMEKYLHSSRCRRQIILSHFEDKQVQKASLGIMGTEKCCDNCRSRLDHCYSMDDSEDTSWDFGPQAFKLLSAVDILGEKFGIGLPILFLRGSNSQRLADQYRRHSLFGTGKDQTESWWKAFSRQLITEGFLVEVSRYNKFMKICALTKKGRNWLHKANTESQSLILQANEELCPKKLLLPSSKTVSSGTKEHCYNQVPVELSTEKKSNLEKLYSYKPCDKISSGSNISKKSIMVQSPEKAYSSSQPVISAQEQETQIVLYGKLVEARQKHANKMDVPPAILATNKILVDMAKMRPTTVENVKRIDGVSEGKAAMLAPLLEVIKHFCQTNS

SMILES	IC50 (WRN C727) [µM]	GI50 (SW480 cells) [µM]	GI50 (HCT 116 cells) [nM]	IC50 [1, 2] [µM]	IC50 [1] [µM]
C[C@@H](/C=C/S(C)(=O)=O)NC(=O)c1cnc(C2CCCC2)nc1Oc1ccccc1F [Example 115, (S,E)-2-cyclopentyl-4-(2-fluorophenoxy)-N-(4-(methylsulfonyl)but-3-en-2-yl)pyrimidine-5-carboxamide]	30.1	> 10	2100	2.9	
CS(=O)(=O)/C=C/CNC(=O)c1cnc(C2CCCC2)nc1Oc1cccc(Cl)c1 [Example 117, (E)-4-(3-chlorophenoxy)-2-cyclopentyl-N-(3-(methylsulfonyl)allyl)pyrimidine-5-carboxamide]	> 100	7.4	6000	6.7	
C[C@@H](/C=C/S(C)(=O)=O)NC(=O)c1cnc(C2CCCC2)nc1Oc1ccc(C#N)cc1 [Example 124, (S,E)-4-(4-cyanophenoxy)-2-cyclopentyl-N-(4-(methylsulfonyl)but-3-en-2-yl)pyrimidine-5-carboxamide]	6.92	> 10	> 10000	14	
C[C@@H](/C=C/S(C)(=O)=O)NC(=O)c1cnc(C2CCCC2)nc1Oc1cccnc1 [Example 125, (S,E)-2-cyclopentyl-N-(4-(methylsulfonyl)but-3-en-2-yl)-4-(pyridin-3-yloxy)pyrimidine-5-carboxamide]	52.2	> 10	3100	12.5	
C[C@@H](/C=C/S(C)(=O)=O)NC(=O)c1cnc(C2CCCC2)nc1OC1CCC1 [Example 127, (S,E)-4-cyclobutoxy-2-cyclopentyl-N-(4-(methylsulfonyl)but-3-en-2-yl)pyrimidine-5-carboxamide]	7.28	5.3	1300	4.27	
C[C@@H](/C=C/S(C)(=O)=O)NC(=O)c1cnc(C2CCCC2)nc1OC1CCCCCC1 [Example 128, (S,E)-4-(cycloheptyloxy)-2-cyclopentyl-N-(4-(methylsulfonyl)but-3-en-2-yl)pyrimidine-5-carboxamide]	25.1	4.2	2500	5.9	
C[C@@H](/C=C/S(C)(=O)=O)NC(=O)c1cnc(C2CCCC2)nc1Oc1cccc(O)c1 [Example 136, (S,E)-2-cyclopentyl-4-(3-hydroxyphenoxy)-N-(4-(methylsulfonyl)but-3-en-2-yl)pyrimidine-5-carboxamide]	18.5	> 10	5100	11	
C[C@@H](/C=C/S(C)(=O)=O)NC(=O)c1cnc(C2CCCC2)nc1Oc1ccccc1O [Example 137, (S,E)-2-cyclopentyl-4-(2-hydroxyphenoxy)-N-(4-(methylsulfonyl)but-3-en-2-yl)pyrimidine-5-carboxamide]	10	> 10	980	3.4	
C[C@@H](/C=C/S(C)(=O)=O)NC(=O)c1cnc(C(C)(C)C)nc1O[C@@H]1C[C@@H]2C[C@@H]2C1 [Example 157, 4-[[(1S,5R)-3-bicyclo[3.1.0]hexanyl]oxy]-2-tert-butyl-N—[(E,1S)-1-methyl-3-methylsulfonyl-allyl]pyrimidine-5-carboxamide]	15	> 10	1100	4	
CC(C)(C)c1ncc(C(=O)N[C@H](/C=C/S(C)(=O)=O)C2CC2)c(O[C@H]2C[C@@H]3C[C@@H]3C2)n1 [Example 160, 4-(((1R,3s,5S)-bicyclo[3.1.0]hexan-3-yl)oxy)-2-(tert-butyl)-N—((S,E)-1-cyclopropyl-3-(methylsulfonyl)allyl)pyrimidine-5-carboxamide]	6	3.4	150	0.9	
C[C@@H](/C=C/S(C)(=O)=O)NC(=O)c1cnc(OC2CCCC2)nc1Oc1ccccc1 [Example 165, (S,E)-2-(cyclopentyloxy)-N-(4-(methylsulfonyl)but-3-en-2-yl)-4-phenoxypyrimidine-5-carboxamide]	22.6	> 10	2700	4.1	
C[C@@H](/C=C/S(C)(=O)=O)NC(=O)c1cnc(N2C3CCC2CC3)nc1Oc1ccccc1 [Example 166, (S,E)-2-(7-azabicyclo[2.2.1]heptan-7-yl)-N-(4-(methylsulfonyl)but-3-en-2-yl)-4-phenoxypyrimidine-5-carboxamide]	8.93	> 10	690	3.6	
C[C@@H](/C=C/S(C)(=O)=O)NC(=O)c1cnc(N2CCCC2)nc1Oc1ccccc1 [Example 168, (S,E)-N-(4-(methylsulfonyl)but-3-en-2-yl)-4-phenoxy-2-(pyrrolidin-1-yl)pyrimidine-5-carboxamide]	9.23	17	1600	4.4	
C[C@@H]1CC[C@H](C)N1c1ncc(C(=O)N[C@@H](C)/C=C/S(C)(=O)=O)c(Oc2ccccc2)n1 [Example 171, 2-((2R,5S)-2,5-dimethylpyrrolidin-1-yl)-N—((S,E)-4-(methylsulfonyl)but-3-en-2-yl)-4-phenoxypyrimidine-5-carboxamide]	4.45	8.1	434	1.19	
C[C@@H](/C=C/S(C)(=O)=O)NC(=O)c1cnc(N2CCCC2(C)C)nc1Oc1ccccc1 [Example 174, (S,E)-2-(2,2-dimethylpyrrolidin-1-yl)-N-(4-(methylsulfonyl)but-3-en-2-yl)-4-phenoxypyrimidine-5-carboxamide]	11.2	11	2200	6.8	
C[C@@H](/C=C/S(C)(=O)=O)NC(=O)c1cnc(N2CCC[C@@H]2C)nc1Oc1ccccc1 [Example 175, 2-((S)-2-methylpyrrolidin-1-yl)-N—((S,E)-4-(methylsulfonyl)but-3-en-2-yl)-4-phenoxypyrimidine-5-carboxamide]	20	12	2200	6.8	
C[C@@H]1CCCN1c1ncc(C(=O)N[C@@H](C)/C=C/S(C)(=O)=O)c(Oc2ccccc2)n1 [Example 176, 2-((R)-2-methylpyrrolidin-1-yl)-N—((S,E)-4-(methylsulfonyl)but-3-en-2-yl)-4-phenoxypyrimidine-5-carboxamide]	1.66	13	440	1.6	
CS(=O)(=O)/C=C/[C@@H](NC(=O)c1cnc(N2CCC2)nc1Oc1ccccc1)C1CC1 [Example 181, (S,E)-2-(azetidin-1-yl)-N-(1-cyclopropyl-3-(methylsulfonyl)allyl)-4-phenoxypyrimidine-5-carboxamide]	27.2	17	88.4	0.87	
CS(=O)(=O)/C=C/[C@@H](NC(=O)c1cnc(N2CC(F)C2)nc1Oc1ccccc1)C1CC1 [Example 182, (S,E)-N-(1-cyclopropyl-3-(methylsulfonyl)allyl)-2-(3-fluoroazetidin-1-yl)-4-phenoxypyrimidine-5-carboxamide]	4.86	19	108	1.1	
CN(CC(F)(F)F)c1ncc(C(=O)N[C@H](/C=C/S(C)(=O)=O)C2CC2)c(Oc2ccccc2)n1 [Example 184, (S,E)-N-(1-cyclopropyl-3-(methylsulfonyl)allyl)-2-(methyl(2,2,2-trifluoroethyl)amino)-4-phenoxypyrimidine-5-carboxamide]	1.3	3.1	191	2.4	
CCN(C)c1ncc(C(=O)N[C@H](/C=C/S(C)(=O)=O)C2CC2)c(Oc2ccccc2)n1 [Example 185, (S,E)-N-(1-cyclopropyl-3-(methylsulfonyl)allyl)-2-(ethyl(methyl)amino)-4-phenoxypyrimidine-5-carboxamide]	1.72	5.4	27.4	0.239	
CC(C)N(C)c1ncc(C(=O)N[C@H](/C=C/S(C)(=O)=O)C2CC2)c(Oc2ccccc2)n1 [Example 186, (S,E)-N-(1-cyclopropyl-3-(methylsulfonyl)allyl)-2-(isopropyl(methyl)amino)-4-phenoxypyrimidine-5-carboxamide]	0.42	3.3	19.5	0.2	
CC(=O)C=C1CN(C(=O)c2cnc(C(C)(C)C)nc2Oc2ccccc2)C1 [Example 190, 1-(1-(2-(tert-butyl)-4-phenoxypyrimidine-5-carbonyl)azetidin-3-ylidene)propan-2-one]	0.69	5.4	530		0.31
COC(=O)C=C1CN(C(=O)c2cnc(C(C)(C)C)nc2Oc2ccccc2)C1 [Example 191, methyl 2-(1-(2-(tert-butyl)-4-phenoxypyrimidine-5-carbonyl)azetidin-3-ylidene)acetate]	2.19	7.4	260		0.91
C[C@@H](/C=C/S(C)(=O)=O)NC(=O)c1cnc(C2CCCC2)nc1OC1CCCC1 [Example 197, (S,E)-2-cyclopentyl-4-(cyclopentyloxy)-N-(4-(methylsulfonyl)but-3-en-2-yl)pyrimidine-5-carboxamide]	6.24	6.19	709	1.69	
